The target of this assay is T1, T. thermophilus Mfd (Thermus thermophilus, UniProt Q72KB4).
T1 construct: full-length, N-terminal hexahistidine tag, plasmid pET28a-NH-TthMfd, expressed in E. coli BL21(DE3)
T1 sequence (Q72KB4 1-978): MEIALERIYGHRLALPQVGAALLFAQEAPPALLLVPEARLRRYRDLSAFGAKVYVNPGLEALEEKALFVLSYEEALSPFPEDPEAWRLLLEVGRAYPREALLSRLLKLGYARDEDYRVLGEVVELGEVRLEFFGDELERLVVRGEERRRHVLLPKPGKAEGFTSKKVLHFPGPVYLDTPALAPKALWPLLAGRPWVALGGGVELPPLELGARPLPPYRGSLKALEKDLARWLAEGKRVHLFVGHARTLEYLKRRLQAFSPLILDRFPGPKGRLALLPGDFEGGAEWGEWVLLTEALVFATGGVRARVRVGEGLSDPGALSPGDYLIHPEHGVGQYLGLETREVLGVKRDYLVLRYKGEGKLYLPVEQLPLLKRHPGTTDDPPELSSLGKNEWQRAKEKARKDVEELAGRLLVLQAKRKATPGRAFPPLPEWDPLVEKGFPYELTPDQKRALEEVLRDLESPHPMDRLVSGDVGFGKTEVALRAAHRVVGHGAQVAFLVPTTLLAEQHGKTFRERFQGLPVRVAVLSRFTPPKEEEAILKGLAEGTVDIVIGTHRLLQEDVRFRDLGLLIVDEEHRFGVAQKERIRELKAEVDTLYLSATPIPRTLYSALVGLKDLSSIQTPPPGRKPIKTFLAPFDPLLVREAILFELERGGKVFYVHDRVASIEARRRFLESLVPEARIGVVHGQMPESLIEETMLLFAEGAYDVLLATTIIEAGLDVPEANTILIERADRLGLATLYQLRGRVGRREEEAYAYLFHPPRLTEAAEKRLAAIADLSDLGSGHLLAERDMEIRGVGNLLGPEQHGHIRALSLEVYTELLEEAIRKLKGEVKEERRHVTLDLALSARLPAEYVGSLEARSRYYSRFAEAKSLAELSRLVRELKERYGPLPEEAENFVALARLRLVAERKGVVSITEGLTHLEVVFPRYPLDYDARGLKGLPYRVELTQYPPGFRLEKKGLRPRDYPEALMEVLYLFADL
Description: colorimetric phosphate release ATPase assay. Particulars: 10 mM MgCl2, 0.1 M KCl, pH 7.9, 37°C; 0.4-2 mM ATP. Type of assay: biochemical.

From PMC7672476, “Structural basis of Mfd-dependent transcription termination” (Nucleic Acids Research, 2020) come the findings set out here.

`Nc1ncnc2c1ncn2[C@@H]1O[C@H](COP(=O)(O)OP(=O)(O)OP(=O)(O)O)[C@@H](O)[C@H]1O` [ATP]: the “colorimetric phosphate release ATPase assay” value is reported as “ATPase activity assay verified that T. thermophilus Mfd hydrolyzed ATP”.
